Measured values: the NIST ThermoML archive (doi:10.1016/j.jct.2017.09.022)
Where “and” joins values, the source holds several entries; their conditions need not be identical. Identical values can stand only once.

Test: molar heat capacity at constant pressure
Conditions: 101.33 kPa, Crystal, Small (less than 1 g) adiabatic calorimetry

C[C@@H](O)[C@H](N)C(=O)O [L-threonine]
Conditions	molar heat capacity at constant pressure
5 K	0.06402 J/K/mol
7.37 K	0.2004 J/K/mol
7.65 K	0.2303 J/K/mol
8.44 K	0.3068 J/K/mol
9.19 K	0.3958 J/K/mol
9.43 K	0.4407 J/K/mol
9.67 K	0.4739 J/K/mol
9.9 K	0.4922 J/K/mol
10 K	0.5155 J/K/mol
10.18 K	0.5729 J/K/mol
10.51 K	0.6643 J/K/mol
10.84 K	0.7242 J/K/mol
11.17 K	0.8156 J/K/mol
11.5 K	0.9129 J/K/mol
11.83 K	0.9969 J/K/mol
12.17 K	1.113 J/K/mol
12.51 K	1.243 J/K/mol
12.84 K	1.353 J/K/mol
13.18 K	1.481 J/K/mol
13.53 K	1.619 J/K/mol
13.87 K	1.76 J/K/mol
14.22 K	1.913 J/K/mol
14.57 K	2.065 J/K/mol
14.92 K	2.237 J/K/mol
15 K	2.278 J/K/mol
15.27 K	2.377 J/K/mol
15.62 K	2.567 J/K/mol
15.97 K	2.765 J/K/mol
16.32 K	2.985 J/K/mol
16.68 K	3.152 J/K/mol
17.04 K	3.354 J/K/mol
17.4 K	3.602 J/K/mol
17.76 K	3.807 J/K/mol
18.11 K	4.063 J/K/mol
18.48 K	4.285 J/K/mol
18.83 K	4.521 J/K/mol
19.2 K	4.803 J/K/mol
19.56 K	5.051 J/K/mol
19.93 K	5.331 J/K/mol
20 K	5.346 J/K/mol
20.52 K	5.738 J/K/mol
21.27 K	6.302 J/K/mol
22.01 K	6.89 J/K/mol
22.77 K	7.515 J/K/mol
23.52 K	8.157 J/K/mol
24.28 K	8.822 J/K/mol
25 K	9.478 J/K/mol
25.04 K	9.545 J/K/mol
25.8 K	10.28 J/K/mol
26.57 K	10.94 J/K/mol
27.34 K	11.62 J/K/mol
28.11 K	12.31 J/K/mol
28.88 K	13.09 J/K/mol
29.66 K	13.84 J/K/mol
30 K	14.22 J/K/mol
30.44 K	14.63 J/K/mol
31.22 K	15.38 J/K/mol
32.01 K	16.18 J/K/mol
32.79 K	16.94 J/K/mol
33.58 K	17.68 J/K/mol
34.37 K	18.37 J/K/mol
35 K	19.04 J/K/mol
35.15 K	19.16 J/K/mol
35.94 K	19.87 J/K/mol
36.73 K	20.63 J/K/mol
37.52 K	21.36 J/K/mol
38.32 K	22.06 J/K/mol
39.11 K	22.79 J/K/mol
39.9 K	23.46 J/K/mol
40 K	23.61 J/K/mol
40.69 K	24.2 J/K/mol
41.48 K	24.95 J/K/mol
42.28 K	25.65 J/K/mol
43.08 K	26.38 J/K/mol
43.88 K	27.09 J/K/mol
44.68 K	27.83 J/K/mol
45 K	28.02 J/K/mol
45.48 K	28.52 J/K/mol
46.27 K	29.22 J/K/mol
47.07 K	29.92 J/K/mol
47.87 K	30.56 J/K/mol
48.67 K	31.17 J/K/mol
49.47 K	31.85 J/K/mol
50 K	32.34 J/K/mol
50.27 K	32.5 J/K/mol
51.07 K	33.12 J/K/mol
51.88 K	33.83 J/K/mol
52.68 K	34.53 J/K/mol
53.48 K	35.28 J/K/mol
54.29 K	36.14 J/K/mol
55.09 K	36.92 J/K/mol
55.9 K	37.74 J/K/mol
56.7 K	38.35 J/K/mol
57.51 K	38.9 J/K/mol
58.32 K	39.21 J/K/mol
59.12 K	39.75 J/K/mol
59.93 K	40.38 J/K/mol
60 K	40.57 J/K/mol
60.74 K	41.01 J/K/mol
61.55 K	41.64 J/K/mol
62.35 K	42.25 J/K/mol
63.15 K	42.88 J/K/mol
63.96 K	43.87 J/K/mol
64.76 K	44.47 J/K/mol
65.57 K	44.98 J/K/mol
66.38 K	45.55 J/K/mol
67.19 K	46.09 J/K/mol
67.99 K	46.67 J/K/mol
68.8 K	47.24 J/K/mol
69.61 K	47.68 J/K/mol
70 K	48.06 J/K/mol
70.54 K	48.31 J/K/mol
71.58 K	49.14 J/K/mol
72.63 K	49.7 J/K/mol
73.67 K	50.33 J/K/mol
74.72 K	50.78 J/K/mol
75.77 K	51.34 J/K/mol
76.82 K	51.96 J/K/mol
77.87 K	52.51 J/K/mol
78.92 K	53.08 J/K/mol
79.65 K	53.03 J/K/mol
79.97 K	53.66 J/K/mol
80 K	53.55 J/K/mol
80.45 K	53.52 J/K/mol
81.02 K	54.31 J/K/mol
81.25 K	53.96 J/K/mol
82.06 K	54.87 J/K/mol and 54.48 J/K/mol
82.86 K	54.97 J/K/mol
83.11 K	55.52 J/K/mol
83.66 K	55.42 J/K/mol
84.17 K	56.16 J/K/mol
84.46 K	55.88 J/K/mol
85.26 K	56.34 J/K/mol
86.06 K	56.87 J/K/mol
86.86 K	57.38 J/K/mol
87.65 K	57.86 J/K/mol
88.45 K	58.33 J/K/mol
89.25 K	58.77 J/K/mol
90 K	59.28 J/K/mol
90.05 K	59.23 J/K/mol
90.85 K	59.72 J/K/mol
91.64 K	60.19 J/K/mol
92.44 K	60.74 J/K/mol
93.24 K	61.3 J/K/mol
94.04 K	61.77 J/K/mol
94.84 K	62.19 J/K/mol
95.63 K	62.65 J/K/mol
96.43 K	63.12 J/K/mol
97.23 K	63.64 J/K/mol
98.02 K	64.16 J/K/mol
98.82 K	64.62 J/K/mol
99.62 K	65.04 J/K/mol
100 K	65.27 J/K/mol
100.5 K	65.53 J/K/mol
101.45 K	66.12 J/K/mol
102.41 K	66.61 J/K/mol
103.36 K	67.11 J/K/mol
104.32 K	67.67 J/K/mol
105.27 K	68.2 J/K/mol
106.22 K	68.79 J/K/mol
107.18 K	69.35 J/K/mol
108.13 K	69.83 J/K/mol
109.09 K	70.36 J/K/mol
110 K	70.84 J/K/mol
110.05 K	70.8 J/K/mol
111 K	71.32 J/K/mol
111.95 K	71.94 J/K/mol
112.91 K	72.42 J/K/mol
113.86 K	72.95 J/K/mol
114.82 K	73.43 J/K/mol
115.77 K	73.97 J/K/mol
116.72 K	74.36 J/K/mol
117.68 K	74.92 J/K/mol
118.63 K	75.5 J/K/mol
119.59 K	75.89 J/K/mol
120 K	76.16 J/K/mol
120.53 K	76.35 J/K/mol
121.49 K	76.8 J/K/mol
122.44 K	77.45 J/K/mol
123.39 K	77.91 J/K/mol
124.35 K	78.3 J/K/mol
125.3 K	78.8 J/K/mol
126.25 K	79.27 J/K/mol
127.21 K	79.82 J/K/mol
128.16 K	80.26 J/K/mol
129.11 K	80.78 J/K/mol
130 K	81.23 J/K/mol
130.07 K	81.26 J/K/mol
131.02 K	81.7 J/K/mol
131.97 K	82.11 J/K/mol
132.93 K	82.72 J/K/mol
133.87 K	83.14 J/K/mol
134.82 K	83.73 J/K/mol
135.76 K	84.14 J/K/mol
136.71 K	84.56 J/K/mol
137.66 K	85.22 J/K/mol
138.61 K	85.64 J/K/mol
139.56 K	85.97 J/K/mol
140 K	86.22 J/K/mol
140.51 K	86.55 J/K/mol
141.46 K	87.05 J/K/mol
142.41 K	87.47 J/K/mol
143.36 K	87.8 J/K/mol
144.31 K	88.38 J/K/mol
